Reference: US8044065B2, “Benzothienopyridines for use as inhibitors of Eg5 kinesin” (Altana Pharma AG, priority 2004, dated 2011)
One block for each compound: values may come before it.

Tests used:
[1] = tested on: RKOp27 colon cancer cells; assay: Induction of apoptosis, Cell death detection ELISA; type: cell-based; settings: Homo sapiens, 24 hours, relative to 50 μM cisplatin = 100 cpu, read-out: Apoptosis Induction, -log EC50 (converted)
Description: The induction of apoptosis can be measured by using a Cell death detection ELISA (Roche Biochemicals, Mannheim, Germany). RKOp27 colon cancer cells are seeded into 96 well flat bottom plates at a density of 10000 cells per well in a volume of 50 μl RPMI medium (containing 10% fetal calf serum) per well. 24 hours after seeding the 50 μl each of the compound dilutions in RPMI medium are added into each well of the 96 Well plate. Each compound dilution is tested at least as triplicates. Wells containing untreated control cells are filled with 50 μl RPMI medium containing 1% DMSO. The cells are then incubated with the substances for 24 hours at 37° C. in a humidified atmosphere containing 5% carbon dioxide. As a positive control for the induction of apoptosis, cells are treated with 50 μM Cisplatin (Gry Pharmaceuticals, Kirchzarten, Germany). Medium is then removed and the cells are lysed in 200 μl lysis buffer. After centrifugation as described by the manufacturer, 10 μl of cell lysate is processed as described in the protocol. The degree of apoptosis is calculated as follows: The absorbance at 405 nm obtained with lysates from cells treated with 50 μM cisplatin is set as 100 cpu (cisplatin units), while an absorbance at 405 nm of 0.0 was set as 0.0 cpu. The degree of apoptosis is expressed as cpu in relation to the value of 100 cpu reached with the lysates obtained from cells treated with 50 μM cisplatin. The corresponding EC50 values of the compounds for apoptosis inducing activity are determined from the concentration-effect curves.

[2] = tested on: RKO colon adenocarcinoma cells (RKOp27), arrested by p27Kip1 induced by Ponasterone A; assay: Alamar Blue cell viability assay, RKO p27 induced by Ponasterone A (arrested cells); type: cell-based; settings: Homo sapiens, RKO p27 induced (10 μM Ponasterone A), 72 hours, read-out: Anti-proliferative/cytotoxic activity, -log IC50, RKO p27 induced (converted)
Description: To determine the cell cycle specific mode of action, subclones of RKO colon adenocarcinoma cells (RKOp27 as described by Schmidt et al. in Oncogene 19, 2423-2429; 2000) are seeded into 96 well flat bottom plates at a density of 16000 cells per well in a volume of 50 μl per well in DMEM growth medium with 10% FCS containing 10 μM Ponasterone A. 24 hours after seeding the 50 μl each of the compound dilutions in DMEM medium are added into each well of the 96-well plate. Each compound dilution is tested as quadruplicates. Wells containing untreated control cells are filled with 50 μl DMEM medium containing 1% DMSO. The cells are then incubated with the substances for 72 hours at 37° C. in a humidified atmosphere containing 5% carbon dioxide. To determine the viability of the cells, 10 μl of an Alamar Blue solution (Biosource) are added and the fluorescence is measured at an extinction of 544 nm and an emission of 590 nm. For the calculation of the cell viability the emission value from untreated cells is set as 100% viability and the emission rates of treated cells are set in relation to the values of untreated cells. Viabilities are expressed as % values. Viability is compared of proliferating cells grown in the absence of the inducer Ponasterone A, versus viability of cells arrested by the expression of ectopic p27Kip1 induced by Ponasterone A.

[3] = tested on: RKO human colon adenocarcinoma cells (RKOp27), uninduced; assay: Alamar Blue cell viability assay, RKO p27 uninduced (proliferating cells); type: cell-based; settings: 72 hours, read-out: Anti-proliferative/cytotoxic activity, -log IC50, RKO p27 uninduced (converted)
Description: The anti-proliferative/cytotoxic activity of the compounds described herein can be tested on subclones of RKO human colon adenocarcinoma cells (Schmidt et al., Oncogene 19, 2423-2429; 2000) using the Alamar Blue cell viability assay (described in O'Brien et al. Eur J Biochem 267, 5421-5426, 2000). The compounds are dissolved as 10 mM solutions in DMSO and subsequently diluted in semi-logarithmic steps. DMSO dilutions are further diluted 1:100 into Dulbecco's modified Eagle's medium (DMEM) containing 10% fetal calf serum to a final concentration twice as much as the final concentration in the test. RKO subclones are seeded into 96 well flat bottom plates at a density of 4000 cells per well in a volume of 50 μl per well. 24 hours after seeding the 50 μl each of the compound dilutions in DMEM medium are added into each well of the 96 well plate. Each compound dilution is tested as quadruplicates. Wells containing untreated control cells are filled with 50 μl DMEM medium containing 1% DMSO. […] To determine the viability of the cells, 10 μl of an Alamar Blue solution (Biosource) are added and the fluorescence is measured at an extinction of 544 nm and an emission of 590 nm. […] Viabilities are expressed as % values.
The corresponding IC50 values of the compounds for anti-proliferative/cytotoxic activity are determined from the concentration-effect curves.
To determine the cell cycle specific mode of action, subclones of RKO colon adenocarcinoma cells (RKOp27 as described by Schmidt et al. in Oncogene 19, 2423-2429; 2000) are seeded into 96 well flat bottom plates at a density of 16000 cells per well in a volume of 50 μl per well in DMEM growth medium with 10% FCS containing 10 μM Ponasterone A. 24 hours after seeding the 50 μl each of the compound dilutions in DMEM medium are added into each well of the 96-well plate. […] To determine the viability of the cells, 10 μl of an Alamar Blue solution (Biosource) are added and the fluorescence is measured at an extinction of 544 nm and an emission of 590 nm. […] Viabilities are expressed as % values. […]

[4] = tested on: NCl-H460 non-small cell lung cancer cells; assay: Mitotic spindle malformation by confocal laser scanning microscopy; type: cell-based; settings: 1 μM, 24 hours, anti-alpha tubulin and Hoechst 33342 staining
Description: Experimental perturbation of Eg5 function causes a characteristic malformation of the mitotic spindle, which can be examined by confocal laser scanning microscopy. NCl-H460 non-small cell lung cancer cells are grown overnight on glass cover slips (Nunc™ Lab-Tek™ Chamber Slides) in 1800 μl DMEM medium containing 10% fetal calf serum. The test compounds are dissolved as 10 mM solutions in DMSO. Appropriate DMSO dilutions of the test compounds are further diluted 1:10 into DMEM medium containing 10% fetal calf serum to a final concentration ten times as much as the final concentration in the test. 24 hours after seeding, 200 μl of the compound dilutions in DMEM medium are added into each well of the cover slip. As a control, 200 μl DMEM medium containing 10% DMSO are added. 24 hours after incubation with the test compounds, the cells are washed with PBS, and fixed with 3.7% formaldehyde in H2O for 20 min. at 37° C. Subsequently, cells are washed with PBS and incubated with 0.1% Triton X-100 in a buffer containing 1.471 mM KH2PO4, 8.504 mM Na2HPO4, 137 mM NaCl, 1.325 mM CaCl2, 2.685 mM KCl, 0.542 mM MgCl2, pH 7.2 for 15 min. at room temperature. […]

melting point: 299 to 305 °C
SMILES: CN1C(=O)N2C(c3cccc(O)c3)c3[nH]c4ccccc4c3CC2(C)C1=O (racemic) [Example 1, (±)-(3aSR,10RS)-10-(3-Hydroxy-phenyl)-2,3a-dimethyl-3a,4,9,10-tetrahydro-2,9,10a-triaza-cyclopenty[b]fluorene-1,3-dione]
EC50 [1]: ≤ 2.51 µM
IC50 [2]: ≥ 100 µM
IC50 [3]: ≤ 0.631 µM
Mitotic arrest / mitotic spindle phenotype [4]: significant enrichment of cells arrested in mitosis

SMILES: CN1C(=O)N2[C@H](c3cccc(O)c3)c3sc4ccccc4c3C[C@@]2(C)C1=O (racemic) [Example 5, (3aSR,10RS)-10-(3-Hydroxy-phenyl)-2,3a-dimethyl-4,10-dihydro-3aH-9-thia-2,10a-diaza-cyclopenta[b]fluorene-1,3-dione]
EC50 [1]: ≤ 2.51 µM

SMILES: CN1C(=O)N2[C@H](c3cccc(O)c3)c3[nH]c4ccccc4c3C[C@@]2(C)C1=O [Example 2, (3aS,10R)-10-(3-Hydroxy-phenyl)-2,3a-dimethyl-3a,4,9,10-tetrahydro-2,9,10a-triaza-cyclopenty[b]fluorene-1,3-dione]
EC50 [1]: ≤ 2.51 µM
IC50 [2]: ≥ 100 µM
IC50 [3]: ≤ 0.631 µM

melting point: 213.3 to 216.4 °C
SMILES: CN1C(=O)C2Cc3c(sc4ccccc34)C(c3cccc(O)c3)N2C1=O [Example 3, (3aS,10R)-10-(3-Hydroxy-phenyl)-2-methyl-4,10-dihydro-3aH-9-thia-2,10-diaza-cyclopenta[b]fluorene-1,3-dione]
EC50 [1]: ≤ 2.51 µM
IC50 [2]: ≥ 100 µM
IC50 [3]: ≤ 0.631 µM
Mitotic arrest / mitotic spindle phenotype [4]: significant enrichment of cells arrested in mitosis
